Earlier results on four molecules are cited in patent US6110491A, “Compound-loaded liposomes and methods for their preparation” (Hermes Biosciences, Inc., priority 1997, dated 2000).

Each structure is given as a SMILES string. ≈ marks a conversion by molar mass, not a printed value. Like-named read-outs stand apart in the source and are kept apart here.

The conditions of the data set: cited from earlier work; for pH-dependent solubility: 37° C.

Regarding `Nc1cc(-c2ccncc2)c[nH]c1=O` [amrinone], the pH dependent solubility (pH 4.1) is 25 mg/ml, the pH dependent solubility (pH 6) was 0.9 mg/ml and the pH dependent solubility (pH 8) is given as 0.9 mg/ml.
Turning to `Nc1nc(O)c2ncn(COC(CO)CO)c2n1` [gancyclovir], the solubility in water by setting is: (alkaline pH) above 100 mg/mL; (pH 7.4) 2.5 mg/mL (≈ 9.79 mM).
`CC(C)Cc1ccc(C(C)C(=O)O)cc1` (centres unmarked) [ibuprofen]: the “solubility (in words)” value is on record as “soluble at alkaline pH” (alkaline pH) and “poorly soluble at neutral pH” (neutral pH).
Turning to `CCn1cc(C(=O)O)c(=O)c2cc(F)c(N3CCNCC3)cc21` [norfloxacin], the pH-dependent solubility (pH 6.5) is given as 2.8 mg/ml, the pH-dependent solubility (pH 7.0) was 1.5 mg/ml, the pH-dependent solubility (pH 8.0) is recorded as 1.9 mg/ml and the pH-dependent solubility (pH <5.5) is on record as above 40 mg/ml.
